Test results published in US7569586B2, “Compounds having β2 adrenergic receptor agonist and muscarinic receptor antagonist activity” (Theravance, Inc., priority 2004, dated 2009).

Key:
[1] = molecular target: T1, hM3 muscarinic receptor (Homo sapiens, UniProt P20309); test: Radioligand binding assay for muscarinic receptors (Assay Test Procedure B); settings: CHO cell membranes, [3H]-NMS displacement; read-out: Ki value for the M3 muscarinic receptor
T1 construct: expressed in transfected cells; host or cells: CHO cells (membranes)
Experimental: CHO cell lines stably expressing cloned human hM1, hM2, hM3 and hM4 muscarinic receptor subtypes, respectively, were grown to near confluency in HAM's F-12 media supplemented with 10% FBS and 250 μg/mL Geneticin. The cells were grown in a 5% CO2, 37° C. incubator and lifted with 2 mM EDTA in dPBS. Cells were collected by 5 minute centrifugation at 650×g, and cell pellets were either stored frozen at −80° C. or membranes were prepared immediately for use. For membrane preparation, cell pellets were resuspended in lysis buffer and homogenized with a Polytron PT-2100 tissue disrupter (Kinematica AG; 20 seconds×2 bursts). Crude membranes were centrifuged at 40,000×g for 15 minutes at 4° C. The membrane pellet was then resuspended with re-suspension buffer and homogenized again with the Polytron tissue disrupter. The protein concentration of the membrane suspension was determined by the method described in Lowry et al., 1951, […], 193, 265. All membranes were stored frozen in aliquots at −80° C. or used immediately. Aliquots of prepared hM5 receptor membranes were purchased directly from Perkin Elmer and stored at −80° C. until use.
Radioligand binding assays for cloned human muscarinic receptors were performed in 96-well microtiter plates in a total assay volume of 100 μL. […] Filter plates were rinsed three times with wash buffer (10 mM HEPES) to remove unbound radioactivity. […] The plates were then counted in a PerkinElmer Topcount liquid scintillation counter (PerkinElmer Inc., Wellesley, Mass.). Binding data were analyzed by nonlinear regression analysis with the GraphPad Prism Software package (GraphPad Software, Inc., San Diego, Calif.) using the one-site competition model. Ki values for test compounds were calculated from observed IC50 values and the KD value of the radioligand using the Cheng-Prusoff equation (Cheng Y; Prusoff W H. (1973) Biochemical Pharmacology, 22(23):3099-108). […]

[2] = molecular target: T2, human β2 adrenergic receptor (Homo sapiens, UniProt P07550); test: Whole-cell cAMP Flashplate assay with lung epithelial cell line BEAS-2B endogenously expressing human β2 adrenergic receptor (Assay Test Procedure E); type: cell-based; settings: BEAS-2B cells
Experimental: For the determination of agonist potencies and efficacies (intrinsic activities) in a cell line expressing endogenous levels of the β2 adrenergic receptor, a human lung epithelial cell line (BEAS-2B) was used (ATCC CRL-9609, American Type Culture Collection, Manassas, Va.) (January B, et al., British Journal of Pharmacology, 1998, 123, 4, 701-11). Cells were grown to 75-90% confluency in complete, serum-free medium (LHC-9 MEDIUM containing Epinephrine and Retinoic Acid, cat # 181-500, Biosource International, Camarillo, Calif.). The day before the assay, medium was switched to LHC-8 (no epinephrine or retinoic acid, cat # 141-500, Biosource International, Camarillo, Calif.). cAMP assays were performed in a radioimmunoassay format using the Flashplate Adenylyl Cyclase Activation Assay System with [^125I]-cAMP (NEN SMP004, PerkinElmer Life Sciences Inc., Boston, Mass.), according to the manufacturers instructions. On the day of the assay, cells were rinsed with PBS, lifted by scraping with 5 mM EDTA in PBS, and counted. Cells were pelleted by centrifugation at 1,000 rpm and re-suspended in stimulation buffer pre-warmed to 37° C. at a final concentration of 600,000 cells/mL. Cells were used at a final concentration of 100,000 to 120,000 cells/well in this assay. […] Plates were sealed, incubated over night at 4° C. and counted the next morning in a Topcount scintillation counter (Packard BioScience Co., Meriden, Conn.). The amount of cAMP produced per mL of reaction was calculated based on the counts observed for samples and cAMP standards, as described in the manufacturer's user manual. Data were analyzed by nonlinear regression analysis with the GraphPad Prism Software package (GraphPad Software, Inc., San Diego, Calif.) using the 4-parameter model for sigmoidal dose-response.
if desired, test compound efficacity (% Eff) was calculated from the ratio of the observed Emax (TOP of the fitted curve) and the maximal response obtained for isoproterenol dose response curve and was expressed as % Eff relative to isoproterenol.

[3] = molecular target: T2, human β2 adrenergic receptor; test: Radioligand binding assay for human β2 adrenergic receptor (Assay Test Procedure A); design: expressed in transfected cells; host or cells: CHO-K1 cells; settings: CHO cell membranes, [3H]-dihydroalprenolol displacement
Experimental: Chinese hamster ovarian (CHO) cell lines stably expressing cloned human β1, β2 or β3 adrenergic receptors, respectively, were grown to near confluency in Hams F-12 media with 10% FBS in the presence of 500 μg/mL Geneticin. The cell monolayer was lifted with 2 mM EDTA in PBS. Cells were pelleted by centrifugation at 1,000 rpm, and cell pellets were either stored frozen at −80° C. or membranes were prepared immediately for use. For preparation of β1 and β2 receptor expressing membranes, cell pellets were re-suspended in lysis buffer (10 mM HEPES/HCl, 10 mM EDTA, pH 7.4 at 4° C.) and homogenized using a tight-fitting Dounce glass homogenizer (30 strokes) on ice. […] The protein concentration of the membrane suspension was determined by the methods described in Lowry et al., 1951, Journal of Biological Chemistry, 193, 265; and Bradford, Analytical Biochemistry, 1976, 72, 248-54. […]
Binding assays were performed in 96-well microtiter plates in a total assay volume of 100 μL with 10-15 μg of membrane protein containing the human β1, β2 or β3 adrenergic receptors in assay buffer (75 mM Tris/HCl pH 7.4 at 25° C., 12.5 mM MgCl2, 1 mM EDTA, 0.2% BSA). […] Non-specific binding was determined in the presence of 10 μM propranolol. […] Filter plates were washed three times with filtration buffer (75 mM Tris/HCl pH 7.4 at 4° C., 12.5 mM MgCl2, 1 mM EDTA) to remove unbound radioactivity. […]

[4] = molecular target: T2, human β2 adrenergic receptor; test: Whole-cell cAMP Flashplate assay in CHO cell lines heterologously expressing human β2 adrenergic receptor (Assay Test Procedure C); type: cell-based; design: expressed in transfected cells; host or cells: CHO-K1 cells; settings: CHO-K1 cells
Experimental: cAMP assays were performed in a radioimmunoassay format using the Flashplate Adenylyl Cyclase Activation Assay System with [^125I]-cAMP (NEN SMP004, PerkinElmer Life Sciences Inc., Boston, Mass.), according to the manufacturers instructions. For the determination of P receptor agonist potency (EC50), CHO-K1 cell lines stably expressing cloned human β1, β2 or β3 adrenergic receptors were grown to near confluency in HAM's F-12 media supplemented with 10% FBS and Geneticin (250 μg/mL). Cells were rinsed with PBS and detached in dPBS (Dulbecco's Phosphate Buffered Saline, without CaCl2 and MgCl2) containing 2 mM EDTA or Trypsin-EDTA solution (0.05% trypsin/0.53 mM EDTA). After counting cells in Coulter cell counter, cells were pelleted by centrifugation at 1,000 rpm and re-suspended in stimulation buffer containing IBMX (PerkinElmer Kit) pre-warmed to room temperature to a concentration of 1.6×10^6 to 2.8×10^6 cells/mL. About 60,000 to 80,000 cells per well were used in this assay. Test compounds (10 mM in DMSO) were diluted into PBS containing 0.1% BSA in Beckman Biomek-2000 and tested at 11 different concentrations ranging from 100 μM to 1 pM. Reactions were incubated for 10 min at 37° C. and stopped by adding 100 μL of cold detection buffer containing [^125I]-cAMP (NEN SMP004, PerkinElmer Life Sciences, Boston, Mass.). The amount of cAMP produced (pmol/well) was calculated based on the counts observed for the samples and cAMP standards as described in the manufacturer's user manual. Data were analyzed by nonlinear regression analysis with the GraphPad Prism Software package (GraphPad Software, Inc., San Diego, Calif.) with the sigmoidal equation. The Cheng-Prusoff equation (Cheng Y, and Prusoff W H., Biochemical Pharmacology, 1973, 22, 23, 3099-108) was used to calculate the […].

T2 sequence (P07550 whole entry): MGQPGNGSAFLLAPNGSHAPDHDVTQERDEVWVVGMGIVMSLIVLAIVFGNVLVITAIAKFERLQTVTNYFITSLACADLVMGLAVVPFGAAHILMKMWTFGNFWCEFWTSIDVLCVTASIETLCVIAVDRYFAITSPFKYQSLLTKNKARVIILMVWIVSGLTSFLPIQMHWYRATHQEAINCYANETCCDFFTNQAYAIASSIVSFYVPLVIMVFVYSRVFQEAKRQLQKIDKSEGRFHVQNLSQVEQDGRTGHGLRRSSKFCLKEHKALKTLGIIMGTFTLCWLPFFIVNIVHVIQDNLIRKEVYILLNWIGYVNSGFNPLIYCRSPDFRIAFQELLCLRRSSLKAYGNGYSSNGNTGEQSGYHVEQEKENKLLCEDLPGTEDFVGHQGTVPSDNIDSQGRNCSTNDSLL
T1 sequence (P20309 whole entry): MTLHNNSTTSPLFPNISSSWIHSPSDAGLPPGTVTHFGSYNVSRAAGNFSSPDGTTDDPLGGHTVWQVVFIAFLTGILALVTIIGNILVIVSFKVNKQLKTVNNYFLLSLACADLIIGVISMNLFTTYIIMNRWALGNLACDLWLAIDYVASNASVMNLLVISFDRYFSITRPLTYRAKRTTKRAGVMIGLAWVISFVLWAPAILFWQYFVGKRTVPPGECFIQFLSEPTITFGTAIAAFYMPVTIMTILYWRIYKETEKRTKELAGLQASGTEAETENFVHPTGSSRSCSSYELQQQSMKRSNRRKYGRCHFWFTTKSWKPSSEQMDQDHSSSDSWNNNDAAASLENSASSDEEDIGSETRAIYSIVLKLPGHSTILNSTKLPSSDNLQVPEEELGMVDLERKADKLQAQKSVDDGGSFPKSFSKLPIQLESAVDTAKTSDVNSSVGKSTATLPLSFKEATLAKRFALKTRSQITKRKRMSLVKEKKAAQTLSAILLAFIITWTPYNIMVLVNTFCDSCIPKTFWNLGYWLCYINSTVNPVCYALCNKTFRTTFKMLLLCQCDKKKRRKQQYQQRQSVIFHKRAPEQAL

| SMILES | Ki [1] [µM] | EC50 [2] [µM] | Ki [3] [µM] | EC50 [4] [µM] |
| --- | --- | --- | --- | --- |
| O=C(Nc1ccccc1-c1ccsc1)OC1CCN(CCCCCCCCCNC[C@H](O)c2ccc(O)c3[nH]c(=O)ccc23)CC1 [Example 2, (2-Thien-3-ylphenyl)carbamic Acid 1-{9-[(R)-2-Hydroxy-2-(8-hydroxy-2-oxo-1,2-dihydroquinolin-5-yl)ethylamino]nonyl}piperidin-4-yl Ester] | < 0.01 | < 0.02 | < 0.01 | < 0.01 |
| O=C(Nc1ccccc1-c1cccs1)OC1CCN(CCCCCCCCCNC[C@H](O)c2ccc(O)c3[nH]c(=O)ccc23)CC1 [Example 1, (2-Thien-2-ylphenyl)carbamic Acid 1-{9-[(R)-2-Hydroxy-2-(8-hydroxy-2-oxo-1,2-dihydroquinolin-5-yl)ethylamino]nonyl}piperidin-4-yl Ester] | < 0.01 | < 0.02 | < 0.01 | < 0.01 |
| O=C(Nc1c(F)cc(F)cc1-c1cccnc1)OC1CCN(CCCCCCCCCNC[C@H](O)c2ccc(O)c3[nH]c(=O)ccc23)CC1 [Example 3, (2,4-Difluoro-6-pyridin-3-ylphenyl)carbamic Acid 1-{9-[(R)-2-Hydroxy-2-(8-hydroxy-2-oxo-1,2-dihydroquinolin-5-yl)ethylamino]nonyl}piperidin-4-yl Ester] | < 0.15 | < 0.02 |  | < 0.01 |
